Results reported in ChEMBL document CHEMBL5532665 (J Med Chem, 2024).
pEC50: −log10 of the molar value. Active and inactive are the calls of the source. No cut-off for these calls is given here.

Legend:
[1] = biological target: T1, Mu-type opioid receptor (Homo sapiens, UniProt P35372); test: Agonist activity at human MOR expressed in CHO-K1 cells co-expressing G-alpha15 by calcium mobilization assay; assay type: functional, cell-based
[2] = system: Mus musculus; test: Antinociceptive activity in Kunming mouse model assessed as latency of tail withdrawal at 1312 nmol/kg, sc measured for 30 mins by tail-flick test relative to control; assay type: functional; conditions: 0.5 h
[3] = biological target: T2, Delta-type opioid receptor (Homo sapiens, UniProt P41143); test: Agonist activity at human DOR expressed in CHO-K1 cells co-expressing G-alpha15 by calcium mobilization assay; assay type: functional, cell-based
[4] = biological target: T2, Delta-type opioid receptor; test: Agonist activity at human DOR expressed in CHO-K1 cells co-expressing G-alpha15 by calcium mobilization assay relative to control; assay type: functional, cell-based; conditions: filed as agonist
[5] = system: Mus musculus; test: Antinociceptive activity in Kunming mouse model assessed as latency of tail withdrawal at 1312 nmol/kg, sc measured for 120 mins by tail-flick test relative to control; assay type: functional; conditions: 2 h
[6] = system: Mus musculus; test: Antinociceptive activity in Kunming mouse model assessed as latency of tail withdrawal at 1312 nmol/kg, sc measured for 60 mins by tail-flick test relative to control; assay type: functional; conditions: 1 h
[7] = biological target: T1, Mu-type opioid receptor; test: Agonist activity at human MOR expressed in CHO-K1 cells co-expressing G-alpha15 by calcium mobilization assay relative to control; assay type: functional, cell-based; conditions: filed as agonist
[8] = system: Mus musculus; test: Antinociceptive activity in Kunming mouse model assessed as latency of tail withdrawal at 1312 nmol/kg, sc measured for 10 mins by tail-flick test relative to control; assay type: functional
[9] = system: Mus musculus; test: Induction of physical dependence in Kunming mouse model assessed as jumping behavior at 5.5 to 275 nmol/kg, sc administered as 7 escalating doses with 8 hr-intervals in-between followed by Nal administration post-2 hrs of last compound dose and further measured for 30 mins by withdrawal assay; assay type: functional, organism-based; conditions: dose 5.5-275 nmol/kg, time 50.5 hrs
[10] = system: Mus musculus; test: Rewarding affect in Kunming mouse model at 139 nmol/kg, sc pre-exposed to place conditioning for 3 days followed by compound administration and further re-exposed to place conditioning measured on day 5 by unbiased CPP method; assay type: functional, organism-based; conditions: time 2.0 day
[11] = system: Mus musculus; test: Antinociceptive activity in Kunming mouse model assessed as latency of tail withdrawal at 13.9 nmol/kg, sc measured for 30 mins by tail-flick test relative to control; assay type: functional; conditions: 0.5 h
[12] = biological target: T3, Kappa-type opioid receptor (Homo sapiens, UniProt P41145); test: Agonist activity at human KOR expressed in CHO-K1 cells co-expressing G-alpha15 by calcium mobilization assay; assay type: functional, cell-based; conditions: cho-k1
[13] = system: Mus musculus; test: Antinociceptive activity in Kunming mouse model administered subcutaneously measured for 5 to 15 mins by acetic acid-induced writhing test; assay type: functional; conditions: route sc, time 5-15 min
[14] = system: Mus musculus; test: Antinociceptive activity in Kunming mouse model at 13.9 nmol/kg, sc pretreated with NALM intracerebroventricularly followed by compound administration by tail-flick test; assay type: functional, organism-based
[15] = system: Mus musculus; test: Antinociceptive activity in Kunming mouse model at 13.9 nmol/kg, sc in presence of nor-BNI by tail-flick test; assay type: functional, organism-based
[16] = system: Mus musculus; test: Antinociceptive activity in Kunming mouse model assessed as latency of tail withdrawal at 13.9 nmol/kg, sc measured for 120 mins by tail-flick test relative to control; assay type: functional; conditions: 2 h
[17] = system: Mus musculus; test: Antinociceptive activity in Kunming mouse model at 13.9 nmol/kg, sc in presence of NTI by tail-flick test; assay type: functional, organism-based
[18] = system: Mus musculus; test: Antinociceptive activity in Kunming mouse model assessed as latency of tail withdrawal at 13.9 nmol/kg, sc measured for 10 mins by tail-flick test relative to control; assay type: functional
[19] = Stability in mouse plasma assessed as half life at 0.01 mol/L measured for 72 hrs by RP-HPLC analysis; assay type: ADME, cell-free
[20] = biological target: T3, Kappa-type opioid receptor; test: Agonist activity at human KOR expressed in CHO-K1 cells co-expressing G-alpha15 by calcium mobilization assay relative to control; assay type: functional, cell-based; conditions: filed as agonist
[21] = system: Mus musculus; test: Antinociceptive activity in Kunming mouse model administered subcutaneously by tail-flick test; assay type: functional; conditions: route sc
[22] = system: Mus musculus; test: Antinociceptive activity in Kunming mouse model assessed as increase in analgesic effect at 0.14 to 13.9 nmol/kg, sc measured for 180 to 360 mins by tail-flick test; assay type: functional, organism-based; conditions: dose 0.14-13.9 nmol/kg, time 180-360 min
[23] = system: Mus musculus; test: Antinociceptive activity in Kunming mouse model at 13.9 nmol/kg, sc in presence of beta-FNA by tail-flick test; assay type: functional, organism-based
[24] = system: Mus musculus; test: Antinociceptive activity in Kunming mouse model assessed as latency of tail withdrawal at 13.9 nmol/kg, sc measured for 60 mins by tail-flick test relative to control; assay type: functional; conditions: 1 h
[25] = system: Mus musculus; test: Antinociceptive activity in Kunming mouse model at 13.9 nmol/kg, sc pretreated with NALM subcutaneously followed by compound administration by tail-flick test; assay type: functional, organism-based
[26] = system: Mus musculus; test: Antinociceptive activity in Kunming mouse model assessed as latency of tail withdrawal at 13881 nmol/kg, sc measured for 120 mins by tail-flick test relative to control; assay type: functional; conditions: 2 h
[27] = system: Mus musculus; test: Antinociceptive activity in Kunming mouse model assessed as latency of tail withdrawal at 13881 nmol/kg, sc measured for 10 mins by tail-flick test relative to control; assay type: functional
[28] = system: Mus musculus; test: Antinociceptive activity in Kunming mouse model assessed as latency of tail withdrawal at 13881 nmol/kg, sc measured for 60 mins by tail-flick test relative to control; assay type: functional; conditions: 1 h
[29] = system: Mus musculus; test: Antinociceptive activity in Kunming mouse model assessed as latency of tail withdrawal at 13881 nmol/kg, sc measured for 30 mins by tail-flick test relative to control; assay type: functional; conditions: 0.5 h
[30] = system: Mus musculus; test: Antinociceptive activity in Kunming mouse model assessed as latency of tail withdrawal at 134 nmol/kg, sc measured for 60 mins by tail-flick test relative to control; assay type: functional; conditions: 1 h
[31] = biological target: T3, Kappa-type opioid receptor; test: Agonist activity at human KOR expressed in CHO-K1 cells co-expressing G-alpha15 upto 100 uM by calcium mobilization assay; assay type: functional, cell-based
[32] = system: Mus musculus; test: Antinociceptive activity in Kunming mouse model assessed as latency of tail withdrawal at 134 nmol/kg, sc measured for 30 mins by tail-flick test relative to control; assay type: functional; conditions: 0.5 h
[33] = system: Mus musculus; test: Antinociceptive activity in Kunming mouse model assessed as latency of tail withdrawal at 134 nmol/kg, sc measured for 10 mins by tail-flick test relative to control; assay type: functional
[34] = system: Mus musculus; test: Antinociceptive activity in Kunming mouse model assessed as latency of tail withdrawal at 134 nmol/kg, sc measured for 120 mins by tail-flick test relative to control; assay type: functional; conditions: 2 h
[35] = system: Mus musculus; test: Antinociceptive activity in Kunming mouse model assessed as latency of tail withdrawal at 13882 nmol/kg, sc measured for 30 mins by tail-flick test relative to control; assay type: functional; conditions: 0.5 h
[36] = system: Mus musculus; test: Antinociceptive activity in Kunming mouse model assessed as latency of tail withdrawal at 13882 nmol/kg, sc measured for 60 mins by tail-flick test relative to control; assay type: functional; conditions: 1 h
[37] = system: Mus musculus; test: Antinociceptive activity in Kunming mouse model assessed as latency of tail withdrawal at 13882 nmol/kg, sc measured for 120 mins by tail-flick test relative to control; assay type: functional; conditions: 2 h
[38] = system: Mus musculus; test: Antinociceptive activity in Kunming mouse model assessed as latency of tail withdrawal at 13882 nmol/kg, sc measured for 10 mins by tail-flick test relative to control; assay type: functional

T3 sequence (P41145 whole entry): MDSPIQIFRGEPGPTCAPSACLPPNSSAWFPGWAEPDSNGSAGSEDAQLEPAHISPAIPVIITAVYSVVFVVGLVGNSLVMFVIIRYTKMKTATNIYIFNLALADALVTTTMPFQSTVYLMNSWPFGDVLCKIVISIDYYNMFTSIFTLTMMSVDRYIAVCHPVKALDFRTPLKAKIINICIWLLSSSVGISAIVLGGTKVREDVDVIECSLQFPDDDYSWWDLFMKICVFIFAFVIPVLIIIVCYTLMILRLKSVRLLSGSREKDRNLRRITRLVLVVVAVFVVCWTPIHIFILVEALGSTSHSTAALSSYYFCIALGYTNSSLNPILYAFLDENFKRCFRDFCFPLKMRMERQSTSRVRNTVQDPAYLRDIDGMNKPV
T2 sequence (P41143 whole entry): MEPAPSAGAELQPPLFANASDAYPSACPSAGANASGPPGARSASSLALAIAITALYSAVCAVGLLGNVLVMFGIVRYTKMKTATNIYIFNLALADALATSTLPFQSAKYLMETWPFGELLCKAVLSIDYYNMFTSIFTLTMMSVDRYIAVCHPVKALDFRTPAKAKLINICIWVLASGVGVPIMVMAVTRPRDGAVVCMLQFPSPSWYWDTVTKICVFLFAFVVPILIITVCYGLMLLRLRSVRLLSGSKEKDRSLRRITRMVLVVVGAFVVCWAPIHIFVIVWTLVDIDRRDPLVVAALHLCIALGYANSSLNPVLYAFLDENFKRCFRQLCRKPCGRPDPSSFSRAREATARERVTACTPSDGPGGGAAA
T1 sequence (P35372 whole entry): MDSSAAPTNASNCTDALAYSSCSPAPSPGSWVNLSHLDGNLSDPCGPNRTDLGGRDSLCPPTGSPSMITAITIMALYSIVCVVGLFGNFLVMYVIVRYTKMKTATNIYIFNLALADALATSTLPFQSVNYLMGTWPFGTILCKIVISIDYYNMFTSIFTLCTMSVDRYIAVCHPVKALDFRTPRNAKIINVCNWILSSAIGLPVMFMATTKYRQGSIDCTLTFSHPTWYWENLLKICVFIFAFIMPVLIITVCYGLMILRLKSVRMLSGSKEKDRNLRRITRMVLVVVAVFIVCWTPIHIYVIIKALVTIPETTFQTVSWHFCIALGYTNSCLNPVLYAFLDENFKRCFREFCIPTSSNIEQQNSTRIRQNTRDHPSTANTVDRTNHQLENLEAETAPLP

## CCCC[C@@H]1NC(=O)[C@H](NC(=O)[C@@H](N)Cc2ccc(O)cc2)CCCCNC(=O)C[C@H](C(=O)N2CCC[C@H]2C(N)=O)NC(=O)[C@H](Cc2ccccc2)NC1=O
[1]
  pEC50: 5.66
[2]
  MPE: 90%
[3]
  pEC50: 7.70
[4]
  Emax: 83.9%
[5]
  MPE: 28%
[6]
  MPE: 75.1%
[7]
  Emax: 88.6%
[8]
  MPE: 50.4%

## NC(=O)[C@@H]1CCCCN1C(=O)[C@H]1CC(=O)NCCCC[C@@H](NC(=O)[C@@H](N)Cc2ccc(O)cc2)C(=O)NCC(=O)N[C@@H](Cc2ccccc2)C(=O)N1
[1]; cho-k1
  pEC50: 9.05
[9]
  Activity: inactive
[10]
  Activity: inactive
[11]
  MPE: 91.2%
[12]
  pEC50: 6.67
[3]; cho-k1
  pEC50: 9.70
[4]
  Emax: 101%
[13]
  ED50: 0.0055 µmol/kg
[14]
  Activity: inactive
[15]
  Activity: inactive
[16]
  MPE: 56.6%
[17]
  Activity: Active
[18]
  MPE: 73.1%
[19]
  half-life at 0.01 mol/L: 18.5 days
[20]
  Emax: 99.5%
[7]
  Emax: 107%
[21]
  ED50: 0.0007 µmol/kg
[22]
  Activity: Active
[23]
  Activity: inactive
[24]
  MPE: 86.9%
[25]
  Activity: Active

## CN1CC(=O)N[C@@H](Cc2ccccc2)C(=O)N[C@H](C(=O)N2CCC[C@@H]2C(N)=O)CC(=O)NCCCC[C@@H](NC(=O)[C@@H](N)Cc2ccc(O)cc2)C1=O
[26]
  MPE: 58.7%
[27]
  MPE: 53.2%
[28]
  MPE: 75.7%
[29]
  MPE: 92.7%

## NC(=O)[C@@H]1CCCN1C(=O)[C@H]1CC(=O)NCCCC[C@@H](NC(=O)[C@@H](N)Cc2ccc(O)cc2)C(=O)N2CCC[C@H]2C(=O)N[C@@H](Cc2ccccc2)C(=O)N1
[1]
  pEC50: 5.68
[30]
  MPE: 84.5%
[31]
  Activity: inactive
[32]
  MPE: 88%
[7]
  Emax: 83.6%
[33]
  MPE: 57.9%
[34]
  MPE: 46.1%

## NC(=O)[C@H]1CCCN1C(=O)[C@@H]1CC(=O)NCCCC[C@@H](NC(=O)[C@@H](N)Cc2ccc(O)cc2)C(=O)NCC(=O)N[C@@H](CCc2ccccc2)C(=O)N1
[35]
  MPE: 96%
[36]
  MPE: 73.7%
[37]
  MPE: 25.6%
[38]
  MPE: 55%
